Assay results published in patent US7238507B2, “Aspergillus ochraceus 11 alpha hydroxylase and oxidoreductase” (priority 2000, dated 2007).

Experiments:
[1] = system: Aspergillus ochraceus 11 alpha hydroxylase; test: HPLC assay of conversion of androstenedione to 11α-hydroxyandrostenedione by subcellular fractions of baculovirus-infected Sf9 cells co-expressing 11 alpha hydroxylase and human oxidoreductase; type: biochemical; conditions: 11 alpha hydroxylase co-expressed in Sf-9 insect cells with human oxidoreductase
Experimental: Microsomal and mitochondrial subcellular fractions were prepared from insect cells co-infected with recombinant baculoviruses expressing recombinant Aspergillus ochraceus 11 alpha hydroxylase and human oxidoreductase cloned from HepG2 cell RNA. The subcellular fractions were incubated with 250 μM androstenedione (AD) in the presence of an NADPH-generating system for 120 minutes, and the resulting products were separated by HPLC and monitored by ultraviolet detection at 247 nm. Hydroxlase activity was found in the microsomal fraction, as expected, but also appeared in the mitochondrial fraction. […] Panel A illustrates a reaction carried out using enzyme prepared from a mitochondrial fraction. The peak in panel A that elutes after AD appears to be testosterone. When a microsomal fraction was used, almost as much AD was converted to 11 alpha hydroxy AD, but relatively more testosterone was also produced. Panel B illustrates the same reaction carried out for 120 minutes without a source of enzyme. Panel C illustrates an HPLC tracing with 11α-hydroxyandrostenedione standard added to incubation buffer.
Sf9 cells were co-infected with virus particles that contained the steroid 11 alpha hydroxylase cDNA and a separate virus containing a human NADPH P450-oxidoreductase. Both viruses were added at a multiplicity of infection (MOI) ratio of 0.1:0.01 (11 aOH to oxr). […]

[2] = system: Aspergillus ochraceus spores; test: 11 α-hydroxylation of canrenone by A. ochraceus spores, media extract analysed by HPLC; type: cell-based; conditions: spores incubated approximately 26 hours at 30° C. with 0.1 g canrenone in 400 ml; data not shown
Experimental: Aspergillus ochraceus ATCC 18500 stock culture (50 ul) was grown for 3-4 days on plates containing sporulation medium: 50 g/L molasses, 5 g/L cornsteep liquid, 5 g/L KH2PO4, 25 g/L NaCl, 25 g/L glucose, 20 g/L agar, and 0.4 g/L progesterone, pH 5.8. Progesterone was included in the media to induce the steroid 11 α-hydroxylase. Spores were scraped from the plates into 5 to 7 ml saline, washed in saline, collected by centrifugation, and suspended in saline containing 15% glycerol. The spores were frozen on dry ice and stored at −80° C. Approximately 0.8 g spores were incubated at 30° C. in a 1 liter flask containing 400 ml 1% glucose, 50 mM KH2PO4 and 0.1 g canrenone, pH 7.0. This treatment prior to spore disruption has three benefits: (1) to induce the steroid 11 α-hydroxylase by incubation with canrenone; (2) to determine whether the spores were catalyzing the 11 α-hydroxylation of canrenone; (3) and to soften the spore wall. After approximately 26 hours of incubating with shaking at 30° C. to provide better aeration, the spores were collected by centrifugation. […]
Approximately 160 ml of media from the spore induction was extracted three times with 70 ml ethyl acetate to collect the steroid substrate and products. […] The residue was dissolved in 8 ml methanol so that the final concentration of canrenone was approximately 15 mM (assuming quantitative recovery). […]

## C[C@]12CCC(=O)C=C1CC[C@@H]1[C@@H]2CC[C@]2(C)C(=O)CC[C@@H]12 [AD, Androst-4-ene-3,17-dione(8CI,9CI)]
[1]
  conversion of the steroid substrate to 11 alpha-hydroxy-AD as determined by HPLC analysis: successfully catalyzed the conversion

## C[C@]12CCC(=O)C=C1C=C[C@@H]1C2CC[C@@]2(C)C1CC[C@@]21CCC(=O)O1 (stereo partly drawn) [canrenone, Pregna-4,6-diene-21-carboxylic acid,17-hydroxy-3-oxo-,γ-lactone, (17α)-(9CI)]
[2]
  11 α-hydroxylation of canrenone, HPLC of media extract monitored at 254 nm: exhibited a component with the same retention time as the 11 α-hydroxy canrenone standard
